Experimental findings from US20240336620A1, “PROTEIN D[…] AND METHODS OF USE” (AnHorn Medicines Co., Ltd., priority 2022, published 2024) are described below.

A value given as a limit tells only on which side of the number the result lay.

In this assay the target is T1, androgen receptor (Homo sapiens, UniProt P10275, T878A).
T1 construct: host or cells: LNCaP·FGC cells
T1 sequence (P10275 1-920 T878A): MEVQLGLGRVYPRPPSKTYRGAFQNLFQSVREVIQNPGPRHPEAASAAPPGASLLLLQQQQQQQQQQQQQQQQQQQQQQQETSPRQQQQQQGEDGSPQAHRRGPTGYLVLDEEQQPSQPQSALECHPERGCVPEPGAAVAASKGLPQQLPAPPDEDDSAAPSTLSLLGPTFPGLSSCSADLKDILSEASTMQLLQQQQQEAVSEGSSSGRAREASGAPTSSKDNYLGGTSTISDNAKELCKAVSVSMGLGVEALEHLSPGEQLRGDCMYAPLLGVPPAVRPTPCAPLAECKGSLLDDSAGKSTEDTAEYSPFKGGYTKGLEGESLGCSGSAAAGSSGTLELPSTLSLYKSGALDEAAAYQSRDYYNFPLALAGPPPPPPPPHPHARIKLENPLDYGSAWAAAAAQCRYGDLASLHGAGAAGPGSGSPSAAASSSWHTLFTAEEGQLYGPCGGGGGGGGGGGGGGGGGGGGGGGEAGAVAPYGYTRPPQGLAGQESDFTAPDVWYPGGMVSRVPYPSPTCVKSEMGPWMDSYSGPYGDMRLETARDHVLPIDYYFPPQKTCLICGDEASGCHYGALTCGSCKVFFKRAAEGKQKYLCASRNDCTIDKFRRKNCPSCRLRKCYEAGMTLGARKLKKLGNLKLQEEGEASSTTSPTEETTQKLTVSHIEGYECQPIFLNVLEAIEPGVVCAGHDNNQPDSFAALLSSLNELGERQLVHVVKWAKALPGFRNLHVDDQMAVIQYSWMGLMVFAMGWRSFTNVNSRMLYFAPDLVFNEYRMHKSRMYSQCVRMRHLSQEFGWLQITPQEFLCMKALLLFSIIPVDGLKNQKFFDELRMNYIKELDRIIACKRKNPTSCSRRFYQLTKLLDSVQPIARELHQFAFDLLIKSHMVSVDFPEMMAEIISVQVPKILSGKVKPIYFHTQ
Briefly: Androgen receptor degradation assay using Western blot analysis. The class given is cell-based. As to conditions: LNCaP·FGC cells, concentration needed for 50% AR degradation, serial dilutions. How it is done:
LNCaP·FGC cells (Cat. 60088, Bioresource Collection and Research Center, 15 HsinChu City, Taiwan R.O.C.) grown in RPMI 1640 (Cat. 31800022, Thermo Fisher Scientific, Waltham, Massachusetts, United States) medium supplemented with 10% FBS (Cat. 10437028, Thermo Fisher Scientific, Waltham, Massachusetts, United States), 10 mM HEPES (Cat. 15630080, Thermo Fisher Scientific, Waltham, Massachusetts, United States) and 1 mM sodium pyruvate (Cat. 11360070, Thermo 20 Fisher Scientific, Waltham, Massachusetts, United States) were seeded at 2×10^5 cells per well in 24-well tissue culture plates. […] After the treatment, the cells were harvested, washed by PBS, and lysed with RIPA lysis and extraction buffer (Cat. 25 89900, Thermo Fisher Scientific, Waltham, Massachusetts, United States) supplemented with Halt Protease Inhibitor Cocktail (Cat. 78430, Thermo Fisher Scientific, Waltham, Massachusetts, United States) to collect protein samples. Cells not treated with any of the above-mentioned compounds are used as a negative control.
The protein samples were separated by polyacrylamide gel electrophoresis, and then transferred to a piece of Immuno-Blot PVDF membrane (Cat. 1620177, Bio-Rad Laboratories, Hercules, California, United States). The presence of androgen receptor in the protein samples was detected by standard Western blotting procedure using an anti-AR antibody (1:2000 dilution) (Cat. 5153, Cell Signaling Technology Inc., Danvers, Massachusetts, United States) and a goat anti-rabbit HRP-conjugated secondary antibody (1:5000 dilution) (C04003, Croyez Bioscience Co., Ltd., Taipei City, Taiwan R.O.C.). The internal loading control GAPDH was detected using a mouse monoclonal antibody (1:5000) (GTX627408, GeneTex International Corp., HsinChu City, Taiwan R.O.C.) and a goat anti-mouse HRP-conjugated secondary antibody (1:5000 dilution) (C04001, Croyez Bioscience Co., Ltd., Taipei City, Taiwan R.O.C.). Chemiluminescence signals were developed using Clarity Western ECL substrate (Cat. 1705061, Bio-Rad Laboratories, Hercules, California, United States) and detected with digital imager iBright FL1500 (Invitrogen Corp., Carlsbad, California, United States).
Compounds 1-16 were selected and serial diluted (1Ox) with RPMI medium for treating LNCaP·FGC cells. A calibration curve was determined by the serial diluted samples for each compound, and the concentration needed for 50% AR degradation (AR DC50) for each compound was calculated. “Cpd. ID” indicates the compound ID number in Table 1.
In general terms: A western blot detects proteins with antibodies after separation by electrophoresis.
Molecule `Cn1c2c(c3ccc(N4CCN(CC5CN(c6ccc(-c7ccc8c(c7)C(C)(C)C(=O)N8c7ccc(C#N)c(Cl)c7)c(F)n6)C5)CC4)cc31)C(=O)N(C1CCC(=O)NC1=O)C2=O` (stereo not shown) [Compound 1] registered a DC50 of 200 to 1000 nM. Turning to `Cn1c2c(c3ccc(OC4CCN(CC5CN(c6ccc(-c7ccc8c(c7)C(C)(C)C(=O)N8c7ccc(C#N)c(Cl)c7)c(F)n6)C5)CC4)cc31)C(=O)N(C1CCC(=O)NC1=O)C2=O` (stereo not shown) [Compound 2], the half-maximal degradation concentration (DC50) is no less than 1000 nM. Then `CCn1c2c(c3ccc(C4CCN(CC5CN(c6ccc(-c7ccc8c(c7)C(C)(C)C(=O)N8c7ccc(C#N)c(Cl)c7)c(F)n6)C5)CC4)cc31)C(=O)N(C1CCC(=O)NC1=O)C2=O` (stereo not shown) [Compound 3], with 200 to 1000 nM.

Take `CCn1c2c(c3ccc(OCCCN4CCN(c5ccc(-c6ccc7c(c6)C(C)(C)C(=O)N7c6ccc(C#N)c(Cl)c6)c(F)n5)CC4)cc31)C(=O)N(C1CCC(=O)NC1=O)C2=O` (stereo not shown) [Compound 4]: the DC50 lay within 200 to 1000 nM. Molecule `Cn1c2c(c3ccc(N4CCN(CC5CCN(c6ccc(-c7ccc8c(c7)C(C)(C)C(=O)N8c7ccc(C#N)c(Cl)c7)c(F)n6)CC5)CC4)cc31)C(=O)N(C1CCC(=O)NC1=O)C2=O` (stereo not shown) [Compound 5] came in with a DC50 of no less than 1000 nM.

Turning to `Cn1c2c(c3ccc(C4CCN(CC5CCN(c6ccc(-c7ccc8c(c7)C(C)(C)C(=O)N8c7ccc(C#N)c(Cl)c7)c(F)n6)CC5)CC4)cc31)C(=O)N(C1CCC(=O)NC1=O)C2=O` (stereo not shown) [Compound 8], the DC50 lay in the range of 200 to 1000 nM. For the molecule `CCn1c2c(c3ccc(N4CCN(CC5CCN(c6ccc(-c7ccc8c(c7)C(C)(C)C(=O)N8c7ccc(C#N)c(Cl)c7)c(F)n6)CC5)CC4)cc31)C(=O)N(C1CCC(=O)NC1=O)C2=O` (stereo not shown) [Compound 9], the 50% degradation concentration (DC50) lay within 200 to 1000 nM. The same measure for `Cn1c2c(c3ccc(N4CCN(CC5CCN(c6ccc(-c7ccc8c(c7)C(C)(C)C(=O)N8c7ccc(C#N)c(Cl)c7)nn6)CC5)CC4)cc31)C(=O)N(C1CCC(=O)NC1=O)C2=O` (stereo not shown) [Compound 11]: no less than 1000 nM; for `CCn1c2c(c3ccc(N4CCN(CC5CN(c6ccc(-c7ccc8c(c7)C(C)(C)C(=O)N8c7ccc(C#N)c(Cl)c7)c(F)n6)C5)CC4)cc31)C(=O)N(C1CCC(=O)NC1=O)C2=O` (stereo not shown) [Compound 12]: less than 200 nM; for `CCn1c2c(c3ccc(OCCN4CCN(c5ccc(-c6ccc7c(c6)C(C)(C)C(=O)N7c6ccc(C#N)c(Cl)c6)c(F)n5)CC4)cc31)C(=O)N(C1CCC(=O)NC1=O)C2=O` (stereo not shown) [Compound 15]: 200 to 1000 nM.

A word on the DC50: it is the concentration at which degradation of the target reaches its halfway point. A higher DC50 goes with a less potent degrader.
